Type in all cases: cell-based
One assay has as its system S. aureus Newman. The assay is described as follows: MIC test according to CLSI M7-A9, S. aureus Newman. As to conditions: Staphylococcus aureus, CLSI M7-A9, CAMHB, 24 h (Table 3), read-out: S. aureus ATCC Newman MIC. The protocol:
(§1) MIC Test (S. aureus ATCC 29213, S. aureus ATCC 43300 and S. aureus Newman)
(§2) Susceptibility testing of S. aureus ATCC 29213, ATCC 43300 and Newman was performed according to Clinical Laboratory Standard Institute (CLSI) guidelines M7-A9. Test articles were stored at room temperature prior to use, then dissolved in filtered sterile DMSO. Stock DMSO solutions were diluted further in cation-adjusted Mueller Hinton broth (CAMHB) to provide appropriate test concentrations. Cultures of S. aureus (ATCC 29213, ATCC 43300 or Newman) were added in accordance with CLSI guidelines and plates incubated at 37° C. in air for 24 h. Endpoints were determined visually (and by spectrophotometer at 600 nm) and the minimum inhibitory concentration (MIC) defined as the lowest concentration of test articles resulting in complete inhibition of visible bacterial growth. Results are detailed in Table 2 (S. aureus ATCC 29213 and ATCC 43300) and Table 3 (S. aureus ATCC 29213, ATCC 43300 and Newman).

The next assay concerns S. aureus ATCC 43300. The assay is described as follows: MIC test according to CLSI M7-A9, S. aureus ATCC 43300. To be noted: Staphylococcus aureus, ATCC43300; CLSI M7-A9, CAMHB, 24 h (Table 3); read-out: S. aureus ATCC 43300 MIC. The procedure: as §1, §2
The next assay has as its system S. aureus ATCC 29213. The assay is described as follows: MIC test according to CLSI M7-A9, S. aureus ATCC 29213. To be noted: Staphylococcus aureus, ATCC29213; CLSI M7-A9, CAMHB, 24 h (Table 3); read-out: S. aureus ATCC 29213 MIC. The procedure: as §1, §2

Values after ≈ are worked out from the molar mass of the structure shown.

As a reminder, the MIC is the smallest concentration in the dilution series that meets the test's criterion for growth inhibition.

Turning to `CCCCCCCCCCCCCCCCNc1nc(-c2ccc(C(C)(C)C)cc2)nc2cc(=O)[nH]n12` [Example 73, 2-(4-tert-butylphenyl)-4-(hexadecylamino)-6H,7H-pyrazolo[1,5-a][1,3,5]triazin-7-one], the MIC in the assay with S. aureus Newman, with S. aureus ATCC 43300 and in the assay with S. aureus ATCC 29213 was more than 32 µg/mL in each case.
Take `CC(C)(C)c1ccc(-c2nc(NCCCNCc3ccccc3)n3[nH]c(=O)cc3n2)cc1` [Example 74, 4-{[3-(benzylamino)propyl]amino}-2-(4-tert-butylphenyl)-6H,7H-pyrazolo[1,5-a][1,3,5]triazin-7-one]: the minimal inhibitory concentration (MIC) in the assay with S. aureus Newman, in the assay with S. aureus ATCC 43300 and with S. aureus ATCC 29213 was 16 µg/mL (≈ 37.2 µM) throughout.
`CN(C)CCCNc1nc(-c2ccc(C(C)(C)C)cc2)nc2cc(=O)[nH]n12` [Example 75, 2-(4-tert-butylphenyl)-4-{[3-(dimethylamino)propyl]amino}-6H,7H-pyrazolo[1,5-a][1,3,5]triazin-7-one]: the MIC with S. aureus Newman, in the assay on S. aureus ATCC 43300 and in the assay with S. aureus ATCC 29213 was 32 µg/mL (≈ 86.8 µM) throughout.
With `CC(C)(O)CCNc1nc(-c2ccc(C(C)(C)C)cc2)nc2cc(=O)[nH]n12` [Example 80, 2-(4-tert-butylphenyl)-4-[(3-hydroxy-3-methylbutyl)amino]-6H,7H-pyrazolo[1,5-a][1,3,5]triazin-7-one], the MIC in the assay on S. aureus Newman was 32 µg/mL (≈ 86.6 µM); in the assay on S. aureus ATCC 43300, 64 µg/mL (≈ 173 µM); in the assay with S. aureus ATCC 29213 it was 32 µg/mL (≈ 86.6 µM).
Consider `CC(C)(C)c1ccc(-c2nc(NCCN3CCOCC3)n3[nH]c(=O)cc3n2)cc1` [Example 81, 2-(4-tert-butylphenyl)-4-{[2-(morpholin-4-yl)ethyl]amino}-6H,7H-pyrazolo[1,5-a][1,3,5]triazin-7-one], for which the minimum inhibitory concentration (MIC) in the assay with S. aureus Newman, in the assay on S. aureus ATCC 43300 and in the assay on S. aureus ATCC 29213 was 128 µg/mL (≈ 323 µM) throughout.
Turning to `CCCCNc1nc(-c2ccc(C(C)(C)C)cc2)nc2c(Cc3c[nH]cn3)c(=O)[nH]n12` [Example 110, 4-(butylamino)-2-(4-tert-butylphenyl)-8-(1H-imidazol-4-ylmethyl)-6H,7H-pyrazolo[1,5-a][1,3,5]triazin-7-one], the MIC with S. aureus Newman came out at 2 µg/mL (≈ 4.77 µM); in the assay with S. aureus ATCC 29213 it was 4 µg/mL (≈ 9.53 µM).
The corresponding values for `CC(C)(C)c1ccc(-c2nc(NCCCc3ccccc3)n3[nH]c(=O)c(Cc4c[nH]cn4)c3n2)cc1` [Example 111, 2-(4-tert-butylphenyl)-8-(1H-imidazol-4-ylmethyl)-4-[(3-phenylpropyl)amino]-6H,7H-pyrazolo[1,5-a][1,3,5]triazin-7-one] are 2 µg/mL (≈ 4.15 µM) and 4 µg/mL (≈ 8.31 µM).
The corresponding values for `Cc1ccc(Cc2c(=O)[nH]n3c(NCCCO)nc(-c4ccc(C(C)(C)C)cc4)nc23)cn1` [Example 113, 2-(4-tert-butylphenyl)-4-[(3-hydroxypropyl)amino]-8-[(6-methylpyridin-3-yl)methyl]-6H,7H-pyrazolo[1,5-a][1,3,5]triazin-7-one] are 32 µg/mL (≈ 71.7 µM) and 32 µg/mL (≈ 71.7 µM).
In the case of `Cc1ccc(Cc2c(=O)[nH]n3c(NCCCN(C)C)nc(-c4ccc(C(C)(C)C)cc4)nc23)cn1` [Example 114, 2-(4-tert-butylphenyl)-4-{[3-(dimethylamino)propyl]amino}-8-[(6-methylpyridin-3-yl)methyl]-6H,7H-pyrazolo[1,5-a][1,3,5]triazin-7-one], the minimum inhibitory concentration (MIC) in the assay on S. aureus Newman and with S. aureus ATCC 29213 was 64 µg/mL (≈ 135 µM) each time.
Turning to `Cc1ccc(Cc2c(=O)[nH]n3c(NCCCN4CCc5ccccc5C4)nc(-c4ccc(C(C)(C)C)cc4)nc23)cn1` [Example 115, 2-(4-tert-butylphenyl)-8-[(6-methylpyridin-3-yl)methyl]-4-[3-(1,2,3,4-tetrahydroisoquinolin-2-yl)propyl]amino-6H,7H-pyrazolo[1,5-a][1,3,5]triazin-7-one], the results for the minimal inhibitory concentration (MIC) in the assay with S. aureus Newman and with S. aureus ATCC 29213 were 8 µg/mL (≈ 14.2 µM) and 32 µg/mL (≈ 57 µM), respectively.
In the same order, the values of `Cc1ccc(Cc2c(=O)[nH]n3c(NCCCNC4Cc5ccccc5C4)nc(-c4ccc(C(C)(C)C)cc4)nc23)cn1` [Example 116, 2-(4-tert-butylphenyl)-4-({3-[(2,3-dihydro-1H-inden-2-yl)amino]propyl}amino)-8-[(6-methylpyridin-3-yl)methyl]-6H,7H-pyrazolo[1,5-a][1,3,5]triazin-7-one] are 4 µg/mL (≈ 7.12 µM) and 4 µg/mL (≈ 7.12 µM).
In the same order, the values of `Cc1ccc(Cc2c(=O)[nH]n3c(N4CCN(C)CC4)nc(-c4ccc(C(C)(C)C)cc4)nc23)cn1` [Example 117, 2-(4-tert-butylphenyl)-4-(4-methylpiperazin-1-yl)-8-[(6-methylpyridin-3-yl)methyl]-6H,7H-pyrazolo[1,5-a][1,3,5]triazin-7-one] are 128 µg/mL (≈ 271 µM) and 128 µg/mL (≈ 271 µM).
In the same order, the values of `CC(C)(C)c1ccc(-c2nc3c(CC45CC6CC(CC(C6)C4)C5)c(=O)[nH]n3c(=S)[nH]2)cc1` [Example 118, 8-(adamantan-1-ylmethyl)-2-(4-tert-butylphenyl)-4-sulfanylidene-3H,4H,6H,7H-pyrazolo[1,5-a][1,3,5]triazin-7-one] are 0.5 µg/mL (≈ 1.11 µM) and 8 µg/mL (≈ 17.8 µM).
Turning to `CC(C)(C)c1ccc(-c2nc(NCCCO)n3[nH]c(=O)c(CC45CC6CC(CC(C6)C4)C5)c3n2)cc1` [Example 119, 8-(adamantan-1-ylmethyl)-2-(4-tert-butylphenyl)-4-[(3-hydroxypropyl)amino]-6H,7H-pyrazolo[1,5-a][1,3,5]triazin-7-one], the minimum inhibitory concentration (MIC) in the assay with S. aureus Newman and with S. aureus ATCC 29213 was 16 µg/mL (≈ 32.7 µM) throughout.
As for `CN(C)CCCNc1nc(-c2ccc(C(C)(C)C)cc2)nc2c(CC34CC5CC(CC(C5)C3)C4)c(=O)[nH]n12` [Example 120, 8-(adamantan-1-ylmethyl)-2-(4-tert-butylphenyl)-4-{[3-(dimethylamino)propyl]amino}-6H,7H-pyrazolo[1,5-a][1,3,5]triazin-7-one], the minimal inhibitory concentration (MIC) in the assay on S. aureus Newman and with S. aureus ATCC 29213 was 1 µg/mL (≈ 1.94 µM) each time.
In the case of `O=c1[nH]n2c(NCCCO)nc(C34CC5CC(CC(C5)C3)C4)nc2c1Cc1ccccc1` [Example 122, 2-(adamantan-1-yl)-8-benzyl-4-[(3-hydroxypropyl)amino]-6H,7H-pyrazolo[1,5-a][1,3,5]triazin-7-one], the minimal inhibitory concentration (MIC) with S. aureus Newman and in the assay on S. aureus ATCC 29213 was 8 µg/mL (≈ 18.5 µM) in each case.
With `CN(C)CCCNc1nc(C23CC4CC(CC(C4)C2)C3)nc2c(Cc3ccccc3)c(=O)[nH]n12` [Example 123, 2-(adamantan-1-yl)-8-benzyl-4-{[3-(dimethylamino)propyl]amino}-6H,7H-pyrazolo[1,5-a][1,3,5]triazin-7-one], the MIC in the assay with S. aureus Newman and with S. aureus ATCC 29213 was 4 µg/mL (≈ 8.68 µM) throughout.
For the compound `O=c1[nH]n2c(NCCCN3CCc4ccccc4C3)nc(C34CC5CC(CC(C5)C3)C4)nc2c1Cc1ccccc1` [Example 124, 2-(adamantan-1-yl)-8-benzyl-4-{[3-(1,2,3,4-tetrahydroisoquinolin-2-yl)propyl]amino}-6H,7H-pyrazolo[1,5-a][1,3,5]triazin-7-one], the minimum inhibitory concentration (MIC) in the assay with S. aureus Newman was 2 µg/mL (≈ 3.64 µM); in the assay with S. aureus ATCC 29213, 128 µg/mL (≈ 233 µM).
In the same order, the values of `O=c1[nH]n2c(NCCCNC3Cc4ccccc4C3)nc(C34CC5CC(CC(C5)C3)C4)nc2c1Cc1ccccc1` [Example 125, 2-(adamantan-1-yl)-8-benzyl-4-({3-[(2,3-dihydro-1H-inden-2-yl)amino]propyl}amino)-6H,7H-pyrazolo[1,5-a][1,3,5]triazin-7-one] are 1 µg/mL (≈ 1.82 µM) and 2 µg/mL (≈ 3.64 µM).

Values taken from patent publication US20180162862A1 (President and Fellows of Harvard College, priority 2015, published 2018).
